According to BindingDB's records for patent US10023539 (Bayer Pharma Aktiengesellschaft, 2018):

Molecular target: N-lysine methyltransferase SMYD2 (Homo sapiens, UniProt Q9NRG4)
Experiment: Scintillation Proximity Assay (SPA) for Detection of SMYD2 Enzymatic Inhibition
Conditions: pH 9
Procedure: To this end, 100-fold concentrated compound solutions (in DMSO) were previously prepared by serial dilution (1:3.4) of 2 mM stocks in a clear low volume 384-well source microtiter plate (Greiner Bio-One), from which 50 nl of compound solutions were transferred into a white low volume test microtiter plate from the same supplier. […] The samples were then incubated for 15 min at 22° C. to allow pre-equilibration of the putative enzyme-inhibitor complexes before the start of the methylation reaction, which was initiated by the addition of 2.5 μl 2-fold concentrated solution (in assay buffer) of titrated S-Adenosyl-L-Methionine (3H-SAM, Perkin Elmer, final concentration: 60 nM) and p53 Peptide substrate (final concentration: 1.0 μM). The resulting mixture (5 μl final volume) was shortly centrifuged (2 min., 1500 rpm) and incubated at 22° C. during 30 min.

N-lysine methyltransferase SMYD2, sequence (Q9NRG4 whole entry): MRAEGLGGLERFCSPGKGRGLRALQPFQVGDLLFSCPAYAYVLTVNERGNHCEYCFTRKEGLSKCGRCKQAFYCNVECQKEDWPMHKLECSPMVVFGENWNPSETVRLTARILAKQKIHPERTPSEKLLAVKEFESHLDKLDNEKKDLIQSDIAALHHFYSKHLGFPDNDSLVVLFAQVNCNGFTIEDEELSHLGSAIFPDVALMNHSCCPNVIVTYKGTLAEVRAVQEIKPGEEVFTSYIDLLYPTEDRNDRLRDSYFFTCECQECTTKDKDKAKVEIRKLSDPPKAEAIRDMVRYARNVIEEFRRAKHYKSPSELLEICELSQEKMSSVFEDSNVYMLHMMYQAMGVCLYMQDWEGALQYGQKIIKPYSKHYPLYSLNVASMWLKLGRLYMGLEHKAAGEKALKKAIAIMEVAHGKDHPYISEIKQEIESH

- IC50: 231 nM
SMILES: CCN(C(=O)[C@@H](C)NC)C1CN(/C(=N\C#N)Nc2cccc(OC(F)F)c2)N=C1c1ccc(Cl)c(C)c1 (stereo partly specified) [US10023539, Example 37]
